The values that follow are results of earlier work, collected in patent publication US20140161820A1, “Short-Term Surrogate Test for Investigative Drugs” (priority 2012, published 2014).

Where only a bound is given, the exact number is not on record here.

In series [1] the target is T1, cholesteryl ester transfer protein (CETP) (Homo sapiens, UniProt P11597).
T1 construct: host or cells: human trial subjects (endogenous plasma CETP)
T1 sequence (P11597 18-493): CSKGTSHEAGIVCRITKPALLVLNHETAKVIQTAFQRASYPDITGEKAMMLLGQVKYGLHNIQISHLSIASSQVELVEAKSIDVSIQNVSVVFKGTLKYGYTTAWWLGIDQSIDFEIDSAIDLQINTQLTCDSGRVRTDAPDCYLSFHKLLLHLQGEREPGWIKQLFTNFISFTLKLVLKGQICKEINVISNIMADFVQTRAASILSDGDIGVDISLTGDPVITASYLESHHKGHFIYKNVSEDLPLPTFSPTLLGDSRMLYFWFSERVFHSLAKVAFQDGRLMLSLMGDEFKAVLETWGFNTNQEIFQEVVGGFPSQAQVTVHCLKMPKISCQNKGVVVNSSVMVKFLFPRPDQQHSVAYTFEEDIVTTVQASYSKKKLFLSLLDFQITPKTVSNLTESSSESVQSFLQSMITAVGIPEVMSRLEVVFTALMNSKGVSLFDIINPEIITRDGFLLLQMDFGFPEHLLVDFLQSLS
To be noted: phase III, treatment group receiving a combination of atorvastatin (Lipitor) and torcetrapib.

The next series concerns platelets. To be noted: in vivo.

For the compound `CCOC(=O)N1c2ccc(C(F)(F)F)cc2[C@@H](N(Cc2cc(C(F)(F)F)cc(C(F)(F)F)c2)C(=O)OC)C[C@H]1CC` [torcetrapib], in series [1], the all-cause mortality result is “excessive all-cause mortality”.
Regarding `CC(=O)Oc1ccccc1C(=O)O` [aspirin], in the series with platelets, the “time by which anti-platelet effects are measurable” value is at most 60 min.
